Usually clearance stands for a measure of how efficiently the substance is removed, as volume per time. As usually defined, the Cmax is the highest concentration seen after dosing.

The values below come from ChEMBL document CHEMBL5150077, “Identification of TUL01101: A Novel Potent and Selective JAK1 Inhibitor for the Treatment of Rheumatoid Arthritis” (J Med Chem, 2022).

Data set [1] deals with Mus musculus. The experiment in a line: Antiarthritic activity in collagen-induced rheumatoid arthritis DBA/1 mouse model assessed as reduction in incidence rate at 15 mg/kg, po BID administered for 14 days starting from 7 days before immunization to 21 days after immunization and measured on day 41 post immunization. Format: functional. Also on record: scale not given: the % may be the effect or the level left. The conditions noted are these: time 14 day.

In data set [2] the target is ALK tyrosine kinase receptor (Homo sapiens) (UniProt Q9UM73). The experiment in a line: Inhibition of human ALK assessed as residual activity at 30 uM relative to control.
Sequence of ALK tyrosine kinase receptor (Homo sapiens) (Q9UM73 19-1620 limits assumed): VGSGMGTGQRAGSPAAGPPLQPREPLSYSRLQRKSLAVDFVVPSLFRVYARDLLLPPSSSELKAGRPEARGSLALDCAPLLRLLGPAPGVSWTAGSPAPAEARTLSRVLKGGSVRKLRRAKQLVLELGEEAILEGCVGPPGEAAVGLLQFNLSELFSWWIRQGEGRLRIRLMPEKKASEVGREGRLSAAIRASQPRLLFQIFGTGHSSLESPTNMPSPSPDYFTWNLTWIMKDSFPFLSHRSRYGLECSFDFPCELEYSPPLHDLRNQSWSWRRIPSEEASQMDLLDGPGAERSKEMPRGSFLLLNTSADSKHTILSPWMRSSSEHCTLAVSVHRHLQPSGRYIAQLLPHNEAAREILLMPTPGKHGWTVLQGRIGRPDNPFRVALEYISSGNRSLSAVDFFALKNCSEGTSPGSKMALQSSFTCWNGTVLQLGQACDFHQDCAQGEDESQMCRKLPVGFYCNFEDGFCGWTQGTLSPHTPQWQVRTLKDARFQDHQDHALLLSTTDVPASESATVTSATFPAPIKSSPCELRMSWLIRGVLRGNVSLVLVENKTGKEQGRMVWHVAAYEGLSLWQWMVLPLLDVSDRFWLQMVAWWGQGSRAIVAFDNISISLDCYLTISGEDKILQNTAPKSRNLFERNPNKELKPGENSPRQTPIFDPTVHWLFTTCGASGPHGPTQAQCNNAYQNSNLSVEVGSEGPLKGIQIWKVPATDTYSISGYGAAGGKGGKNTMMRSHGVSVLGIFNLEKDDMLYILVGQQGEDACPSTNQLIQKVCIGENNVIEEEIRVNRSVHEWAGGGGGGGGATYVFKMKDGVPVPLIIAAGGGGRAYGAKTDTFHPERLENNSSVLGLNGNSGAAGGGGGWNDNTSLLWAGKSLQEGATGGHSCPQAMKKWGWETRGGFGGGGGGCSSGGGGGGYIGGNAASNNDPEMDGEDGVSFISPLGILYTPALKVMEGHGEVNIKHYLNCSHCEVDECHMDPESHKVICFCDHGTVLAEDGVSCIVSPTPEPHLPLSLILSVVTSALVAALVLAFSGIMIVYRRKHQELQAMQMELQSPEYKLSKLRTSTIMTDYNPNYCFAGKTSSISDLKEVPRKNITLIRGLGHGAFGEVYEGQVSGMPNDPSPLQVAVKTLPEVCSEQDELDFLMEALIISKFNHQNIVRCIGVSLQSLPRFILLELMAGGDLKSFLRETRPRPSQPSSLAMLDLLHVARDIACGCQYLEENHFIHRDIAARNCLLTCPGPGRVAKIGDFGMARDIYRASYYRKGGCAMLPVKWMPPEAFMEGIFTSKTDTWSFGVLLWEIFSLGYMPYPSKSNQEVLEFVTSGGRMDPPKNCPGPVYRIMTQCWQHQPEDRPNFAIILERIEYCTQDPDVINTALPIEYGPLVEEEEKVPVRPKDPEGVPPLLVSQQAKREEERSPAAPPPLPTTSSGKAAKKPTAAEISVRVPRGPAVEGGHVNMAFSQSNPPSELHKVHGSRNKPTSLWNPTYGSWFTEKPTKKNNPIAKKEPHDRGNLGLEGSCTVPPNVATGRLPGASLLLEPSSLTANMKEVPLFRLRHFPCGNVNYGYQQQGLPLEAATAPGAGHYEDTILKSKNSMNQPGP
Data set [3] addresses Tyrosine-protein kinase Blk (Homo sapiens) (UniProt P51451). The data set can be described thus: Inhibition of human BLK assessed as residual activity at 30 uM relative to control.
In data set [4] the target is High affinity nerve growth factor receptor (Homo sapiens) (UniProt P04629). The data set can be described thus: Inhibition of human TRK assessed as residual activity at 30 uM relative to control.
Data set [5] deals with Receptor-type tyrosine-protein kinase FLT3 (Homo sapiens) (UniProt P36888). The data set can be described thus: Inhibition of human FLT3 assessed as residual activity at 30 uM relative to control.
Sequence of Receptor-type tyrosine-protein kinase FLT3 (Homo sapiens) (P36888 whole entry): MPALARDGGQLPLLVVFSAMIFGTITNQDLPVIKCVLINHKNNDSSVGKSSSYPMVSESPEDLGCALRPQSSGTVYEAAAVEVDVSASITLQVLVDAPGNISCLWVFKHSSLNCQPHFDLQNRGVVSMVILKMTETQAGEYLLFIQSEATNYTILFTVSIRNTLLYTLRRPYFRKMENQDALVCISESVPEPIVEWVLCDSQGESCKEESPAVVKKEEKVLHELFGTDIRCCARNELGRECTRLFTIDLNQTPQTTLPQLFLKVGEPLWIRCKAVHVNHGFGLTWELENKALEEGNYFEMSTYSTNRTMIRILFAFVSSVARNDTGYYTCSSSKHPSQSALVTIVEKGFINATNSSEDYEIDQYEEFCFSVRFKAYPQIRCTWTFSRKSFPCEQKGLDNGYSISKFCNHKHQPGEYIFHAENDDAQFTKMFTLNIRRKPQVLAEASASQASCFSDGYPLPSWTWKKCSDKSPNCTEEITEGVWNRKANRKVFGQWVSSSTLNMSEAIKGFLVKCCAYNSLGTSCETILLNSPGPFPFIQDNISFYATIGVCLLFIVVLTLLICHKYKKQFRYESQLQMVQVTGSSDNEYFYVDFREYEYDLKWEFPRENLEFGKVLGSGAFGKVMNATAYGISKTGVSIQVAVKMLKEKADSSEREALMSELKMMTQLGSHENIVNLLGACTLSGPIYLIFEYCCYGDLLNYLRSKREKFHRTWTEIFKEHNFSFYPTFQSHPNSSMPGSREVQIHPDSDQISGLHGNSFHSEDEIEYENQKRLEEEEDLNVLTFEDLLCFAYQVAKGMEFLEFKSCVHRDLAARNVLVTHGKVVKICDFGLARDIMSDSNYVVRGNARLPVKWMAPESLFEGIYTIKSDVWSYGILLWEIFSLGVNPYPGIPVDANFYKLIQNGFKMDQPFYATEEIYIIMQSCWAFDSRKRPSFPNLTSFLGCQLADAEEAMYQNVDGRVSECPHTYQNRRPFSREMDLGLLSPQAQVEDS
For data set [6], the target named is Inhibitor of nuclear factor kappa-B kinase subunit beta (Homo sapiens) (UniProt O14920). The data set can be described thus: Inhibition of human IKKbeta assessed as residual activity at 30 uM relative to control.
Sequence of Inhibitor of nuclear factor kappa-B kinase subunit beta (Homo sapiens) (O14920 whole entry): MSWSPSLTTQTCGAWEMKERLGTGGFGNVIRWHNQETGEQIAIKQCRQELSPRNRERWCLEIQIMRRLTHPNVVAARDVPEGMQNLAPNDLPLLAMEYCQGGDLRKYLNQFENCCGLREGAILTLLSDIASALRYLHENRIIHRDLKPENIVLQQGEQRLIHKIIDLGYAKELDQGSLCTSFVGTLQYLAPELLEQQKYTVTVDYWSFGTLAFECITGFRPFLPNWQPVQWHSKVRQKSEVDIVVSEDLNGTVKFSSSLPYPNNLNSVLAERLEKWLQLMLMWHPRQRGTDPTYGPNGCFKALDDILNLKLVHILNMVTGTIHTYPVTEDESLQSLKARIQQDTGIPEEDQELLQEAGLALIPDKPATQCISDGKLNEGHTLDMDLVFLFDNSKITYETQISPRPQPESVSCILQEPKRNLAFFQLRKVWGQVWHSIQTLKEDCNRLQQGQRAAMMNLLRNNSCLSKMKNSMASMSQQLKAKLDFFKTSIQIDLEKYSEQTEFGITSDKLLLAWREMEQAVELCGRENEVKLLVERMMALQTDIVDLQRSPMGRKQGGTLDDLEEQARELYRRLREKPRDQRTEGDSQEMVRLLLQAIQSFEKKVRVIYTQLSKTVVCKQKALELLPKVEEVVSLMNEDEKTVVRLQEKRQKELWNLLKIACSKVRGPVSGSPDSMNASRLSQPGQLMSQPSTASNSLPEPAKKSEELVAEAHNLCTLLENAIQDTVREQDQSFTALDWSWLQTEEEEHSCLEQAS
In data set [7] the target is Serine/threonine-protein kinase B-raf (Homo sapiens) (UniProt P15056). The experiment in a line: Inhibition of human B-raf assessed as residual activity at 30 uM relative to control.
Data set [8] addresses Calcium/calmodulin-dependent protein kinase type II subunit alpha (Homo sapiens) (UniProt Q9UQM7). The experiment in a line: Inhibition of human CAMKIIalpha assessed as residual activity at 30 uM relative to control.
Data set [9] addresses Serine/threonine-protein kinase Chk1 (Homo sapiens) (UniProt O14757). The data set can be described thus: Inhibition of human CHK1 assessed as residual activity at 30 uM relative to control.
The target in data set [10] is Platelet-derived growth factor receptor beta (Homo sapiens) (UniProt P09619). The data set can be described thus: Inhibition of human PDGFRbeta assessed as residual activity at 30 uM relative to control.
Data set [11] has as its target Tyrosine-protein kinase Lck (Homo sapiens) (UniProt P06239). The experiment in a line: Inhibition of human LCK assessed as residual activity at 30 uM relative to control.
The target in data set [12] is MAP kinase-activated protein kinase 2 (Homo sapiens) (UniProt P49137). The experiment in a line: Inhibition of human MAPKAPK2 assessed as residual activity at 30 uM relative to control.
For data set [13], the target named is RAC-alpha serine/threonine-protein kinase (Homo sapiens) (UniProt P31749). The experiment in a line: Inhibition of human PKBalpha assessed as residual activity at 30 uM relative to control.
The target of data set [14] is Casein kinase I (Homo sapiens) (UniProt Q9HCP0+P78368+P48730+P49674+P48729). The data set can be described thus: Inhibition of CK1 (unknown origin) assessed as residual activity at 30 uM relative to control. Format: protein assay.
In data set [15] the target is Ephrin type-A receptor 2 (Homo sapiens) (UniProt P29317). The data set can be described thus: Inhibition of human EPHA2 assessed as residual activity at 30 uM relative to control.
Sequence of Ephrin type-A receptor 2 (Homo sapiens) (P29317 whole entry): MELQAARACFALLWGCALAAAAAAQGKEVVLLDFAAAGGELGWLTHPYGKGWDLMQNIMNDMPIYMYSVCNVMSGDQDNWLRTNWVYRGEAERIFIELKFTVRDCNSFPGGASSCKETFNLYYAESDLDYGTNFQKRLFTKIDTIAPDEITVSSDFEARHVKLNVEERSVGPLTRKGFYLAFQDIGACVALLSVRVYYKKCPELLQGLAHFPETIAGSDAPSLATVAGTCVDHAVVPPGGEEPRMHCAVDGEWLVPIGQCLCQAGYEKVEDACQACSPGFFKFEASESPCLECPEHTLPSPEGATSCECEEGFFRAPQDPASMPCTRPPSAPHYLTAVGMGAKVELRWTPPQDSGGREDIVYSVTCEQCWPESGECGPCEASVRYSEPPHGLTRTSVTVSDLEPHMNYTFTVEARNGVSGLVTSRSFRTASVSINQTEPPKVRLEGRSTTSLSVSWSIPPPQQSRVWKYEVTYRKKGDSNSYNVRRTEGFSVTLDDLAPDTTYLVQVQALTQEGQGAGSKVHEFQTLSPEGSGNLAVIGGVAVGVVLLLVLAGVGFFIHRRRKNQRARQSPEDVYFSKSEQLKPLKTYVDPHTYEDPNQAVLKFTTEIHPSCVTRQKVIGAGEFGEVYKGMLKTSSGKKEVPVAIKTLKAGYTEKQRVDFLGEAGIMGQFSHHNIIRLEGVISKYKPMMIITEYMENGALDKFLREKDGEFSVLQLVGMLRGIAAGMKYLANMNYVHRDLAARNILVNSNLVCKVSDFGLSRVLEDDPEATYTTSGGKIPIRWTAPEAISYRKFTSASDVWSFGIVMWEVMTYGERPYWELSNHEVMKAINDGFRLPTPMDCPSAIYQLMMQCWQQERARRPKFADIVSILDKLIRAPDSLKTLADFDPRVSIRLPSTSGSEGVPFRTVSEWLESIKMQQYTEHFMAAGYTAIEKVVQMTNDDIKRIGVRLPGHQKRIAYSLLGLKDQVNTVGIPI
Data set [16] addresses [Pyruvate dehydrogenase (acetyl-transferring)] kinase isozyme 1, mitochondrial (Homo sapiens) (UniProt Q15118). The data set can be described thus: Inhibition of human PDK1 assessed as residual activity at 30 uM relative to control.
Data set [17] addresses Hepatocyte growth factor receptor (Homo sapiens) (UniProt P08581). The experiment in a line: Inhibition of human MET assessed as residual activity at 30 uM relative to control.
Data set [18] addresses Misshapen-like kinase 1 (Homo sapiens) (UniProt Q8N4C8). The data set can be described thus: Inhibition of human MINK assessed as residual activity at 30 uM relative to control.
The target in data set [19] is Serine/threonine-protein kinase 26 (Homo sapiens) (UniProt Q9P289). The experiment in a line: Inhibition of human MST4 assessed as residual activity at 30 uM relative to control.
Data set [20] can be described thus: Elimination half life in Sprague-Dawley rat at 10 mg/kg, po measured for 24 hrs by LC-MS/MS analysis. It counts as ADME, organism-based. The conditions noted are these: in vivo, read-out: beta t1/2 (converted).
Data set [21] in a line: Volume of distribution at steady state in Sprague-Dawley rat at 1 mg/kg, iv measured for 24 hrs by LC-MS/MS analysis. Format: ADME, organism-based. The conditions noted are these: in vivo, read-out: Vdss.
Data set [22] in a line: Clearance in beagle dog at 0.2 mg/kg, iv measured for 24 hrs by LC-MS/MS analysis. Format: ADME, organism-based, Canis lupus familiaris. To be noted: in vivo.
Data set [23] deals with Rattus norvegicus. The data set can be described thus: Antiarthritic activity in adjuvant-induced arthritis rat model assessed as clinical score at 1 mg/kg, po administered twice a day for 14 days starting from day 13 to 27 post immunization and measured every 3 days a week. To be noted: time 14 day. It counts as functional.
The test system of data set [24] is Rattus norvegicus. The experiment in a line: Antiarthritic activity in adjuvant-induced arthritis rat model assessed as clinical score at 10 mg/kg, po administered twice a day for 14 days starting from day 13 to 27 post immunization and measured every 3 days a week. Format: functional. The conditions noted are these: time 14 day.
Data set [25] can be described thus: Toxicity in rat assessed as reduction in body weight at 10 mg/kg/day, po administered via gavage once a day pretreated for 9 weeks prior to co-cage and measured on day 74 relative to control. It counts as organism-based. Also on record: scale not given: the % may be the effect or the level left. To be noted: in vivo, 1776 h, time 74 day.
The nature of data set [26]: Toxicity in rat assessed as reduction in body weight at 10 mg/kg/day, po administered via gavage once a day pretreated for 9 weeks prior to co-cage and measured on day 84 relative to control. Format: organism-based. Also on record: scale not given: the % may be the effect or the level left. The conditions noted are these: in vivo, 2016 h, time 84 day.
A short description of data set [27]: Toxicity in rat assessed as reduction in food intake at 10 mg/kg/day, po administered via gavage once a day pretreated for 9 weeks prior to co-cage and measured on day 84. Format: organism-based. Also on record: scale not given: the % may be the effect or the level left. The conditions noted are these: in vivo, 2016 h, time 84 day.
Data set [28] is described as follows: in vivo. To be noted: Sprague-Dawley, rat, po, 10 mg/kg.
Data set [29] in a line: in vivo. The conditions noted are these: beagle, dog, po, 5 mg/kg.

Sequence of Tyrosine-protein kinase Lck (Homo sapiens) (P06239 2-509 limits assumed): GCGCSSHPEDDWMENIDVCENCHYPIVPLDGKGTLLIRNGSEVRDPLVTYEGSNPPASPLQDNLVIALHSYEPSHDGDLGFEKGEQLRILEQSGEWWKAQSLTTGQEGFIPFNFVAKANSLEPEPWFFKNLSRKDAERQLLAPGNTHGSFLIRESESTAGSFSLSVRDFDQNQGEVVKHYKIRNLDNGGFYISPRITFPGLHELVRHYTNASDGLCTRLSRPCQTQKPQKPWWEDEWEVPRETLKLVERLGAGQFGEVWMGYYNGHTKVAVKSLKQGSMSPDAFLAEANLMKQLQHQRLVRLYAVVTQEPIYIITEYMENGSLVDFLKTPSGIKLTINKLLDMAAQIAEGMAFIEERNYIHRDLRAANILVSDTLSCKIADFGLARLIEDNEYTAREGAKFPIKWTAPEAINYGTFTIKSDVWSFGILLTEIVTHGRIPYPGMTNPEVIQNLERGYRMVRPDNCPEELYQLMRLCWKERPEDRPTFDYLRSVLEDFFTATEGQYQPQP

On to `O=C(Nc1nc2cccc(C3CCC4(CC3)CCN(C(=O)[C@@H]3CC3(F)F)CC4)n2n1)C1CC1`, for which the Activity in data set [1] is 100%.

Regarding `O=C(Nc1nc2cccc(C3CCC4(CC3)CN(C(=O)[C@@H]3CC3(F)F)C4)n2n1)C1CC1`, the Activity turned out to be 101% in data set [2]; 81% in data set [3]; 89% in data set [4]; 34% in [5]; 97% in data set [6]; 84% in [7]. For the same compound, the Activity in [8] amounted to 88%; in [9] it was 99%; in data set [10], 85%; in data set [11], 74%; in data set [12], 112%; in [13], 104%. For the same compound, the Activity in data set [14] was determined as 102%; in data set [15] it was 102%; in data set [16], 80%; in data set [17], 90%; in data set [18], 107%; in data set [19], 99%. The Activity in data set [23] came out at 5.4; in data set [24] it was 3.2; in data set [25], 4.99%; in [26] it was 5.53%; in data set [27], 7.8%. The half-life in [20] was 184 min. Besides, the Vd in data set [21] came to 1.81 L/kg. For the same compound, in [22], the clearance is 5.73 mL/min/kg. Besides, in data set [28], the Cmax at 24 h was 4960 ng/mL. Further, the bioavailability at 24 h in data set [29] was 106%.
